From patent US8455491B2, “6-cycloamino-3-(pyridazin-4-yl)imidazo[1,2-b]pyridazine and derivatives and pharmaceutical compositions comprising the same” (Sanofi, priority 2007, dated 2013)

Tested on: Mper1-luc Rat-1 (P2C4) fibroblasts
Assay: Circadian cell assay (mPer1-luciferase reporter, period prolongation)
Assay type: cell-based
Settings: effective concentration that induced a 1-hour prolongation of the circadian period, interpolated from hyperbolic curve
Experimental: Experimental Protocols for Circadian Cell Assay
Mper1-luc Rat-1 (P2C4) fibroblast cultures were prepared by dividing the cultures every 3-4 days (approximately 10-20% of confluence) on 150 cm^2 degassed polystyrene tissue culture flasks (Falcon® #35-5001) and maintained in growth medium [EMEM (Cellgro #10-010-CV); 10% fetal bovine serum (FBS; Gibco #16000-044); and 50 I.U./ml of penicillin-streptomycin (Cellgro #30-001-CI)] at 37° C. and under 5% CO2.
Cells obtained from Rat-1 fibroblast cultures at 30-50% of confluence as described above were co-transfected with vectors containing the selection marker for resistance to zeocin for a stable transfection and a luciferase reporter gene controlled by the mPer-1 promoter. After 24 to 48 hours, the cultures were divided on 96-well plates and maintained in growth medium supplemented with 50-100 μg/ml of zeocin (Invitrogen® #45-0430) for 10-14 days. The zeocin-resistant stable transfectants were evaluated for the expression of the reporter by adding 100 μM lucerfin (Promega® #E1603®) to the growth medium and by assaying the luciferase activity on a TopCount® scintillation counter (Packard Model #C384V00). The Rat-1 cell clones expressing both zeocin resistance and lucerifase activity controlled by mPer1 were serum-shock synchronized with 50% horse serum [HS (Gibco® #16050-122)] and the activity of the circadian reporter was evaluated. The P2C4 clone of Mper1-luc Rat-1 fibroblasts was selected to test the compound.
Mper1-luc Rat-1 (P2C4) fibroblasts at 40-50% of confluence, obtained according to the protocol described above, were plated out onto 96-well opaque tissue culture plates (Perkin Elmer® #6005680). The cultures are maintained in growth medium supplemented with 100 μg/ml of zeocin (Invitrogen #45-0430) until they reach 100% of confluence (48-72 h). The cultures were then synchronized with 100 μl of synchronization medium [EMEM (Cellgro #10-010-CV); 100 I.U./ml of penicillin-streptomycin (Cellgro #30-001-C1); 50% HS (Gibco #16050-122)] for 2 hours at 37° C. and under 5% CO2. After synchronization, the cultures were rinsed with 100 μl of EMEM (Cellgro #10-010-CV) for 10 minutes at ambient temperature. […]
The period analysis was performed either by determining the interval between the relative light emission minima over several days or by Fourier transform. […] The data were analyzed by adjusting a hyperbolic curve to the data expressed as change of period (y-axis) as a function of the concentration of the test compound (x-axis) in the XLfit™ software and the CE Delta (t+1 h) was interpolated from this curve.

CN1CCN(c2ccc3nc(-c4ccc(F)cc4)c(-c4ccnnc4)n3n2)CC1 [compound 5, 2-(4-fluorophenyl)-6-(4-methylpiperazin-1-yl)-3-pyridazin-4-yl-imidazo[1,2-b]pyridazine]
CE Delta (t + 1 h): 5 nM
